Results on 14 compounds are retold here after PubChem BioAssay (NCI).

SMILES strings stand for the structures.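 Cultured in 96-well plates, cells were exposed to test compound for 48 hours across five concentrations. TGI is the concentration that stops growth completely.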 A value given as a limit tells only on which side of the number the result lay.

Assay in all cases: inhibition of tumour cell growth, NCI panel, 48 h
Test [1] has as its system A549 NSCLC.
Test [2] concerns COLO 205 colon.
Test [3] relates to DMS 114 small cell lung.
Test [4] has as its system HCT-116 colon.
Test [5] deals with HL-60(TB) leukemia.
Test [6] relates to HOP-62 NSCLC.
In test [7] the test system is IGROV1 ovarian.
The test system of test [8] is K-562 leukemia.
The test system of test [9] is LOX IMVI melanoma.
Test [10] deals with MALME-3M melanoma.
Test [11] has as its system MOLT-4 leukemia.
The test system of test [12] is NCI-H23 lung.
The test system of test [13] is NCI-H460 lung.
Test [14] concerns OVCAR-3 ovarian.
Test [15] relates to OVCAR-4 ovarian.
Test [16] relates to RPMI-8226 leukemia.
Test [17] has as its system SF-295 CNS.
The subject of test [18] is SK-MEL-2 melanoma.
For test [19], the system named is SN12C renal.
Test [20] concerns UO-31 renal.

With `CN(C)C(=O)OC(Cn1cncn1)c1ccc(Cl)cc1Cl` (centres undefined), the TGI in test [1], in test [2], in [3], in [4], in test [5] and in test [6] was > 100 µM in each case. Also, the TGI in test [7], in [8], in test [9], in test [10], in test [11] and in test [12] was > 100 µM in each case. Also, the TGI in test [13], in test [14], in test [15], in test [16], in test [17] and in [18] was > 100 µM in each case. Besides, the TGI in [19] and in test [20] was > 100 µM each time.

As for `CCc1ccccc1NC(=O)C(=O)CC(=O)c1sc(Nc2ccccc2)nc1C`, the TGI in test [1], in test [2], in test [3], in [4], in [5] and in [6] was > 100 µM in each case. Further, the TGI in [7], in test [8], in test [9], in [10], in test [11] and in test [12] was > 100 µM in each case. The TGI in test [13], in [14], in test [15], in test [17], in test [18] and in test [19] was > 100 µM in each case. Also, the TGI in test [20] was > 100 µM.

With `O=C(COc1ccc2c(=O)cc(-c3ccccc3)oc2c1)N1CCN(c2ccccc2)CC1`, the TGI is > 100 µM in [1]; > 100 µM in [2]; > 100 µM in [3]; > 100 µM in test [4]; 87.3 µM in test [5]; > 100 µM in test [6]. In addition, the TGI in test [7], in test [8], in test [9], in test [10], in test [11] and in [12] was > 100 µM throughout. Besides, the TGI in test [13] is > 100 µM; in test [14], > 100 µM; in test [16], > 100 µM; in [17], > 100 µM; in test [18] it was 77.8 µM; in [19], > 100 µM. Besides, the TGI in [20] was > 100 µM.

Consider `CSc1ccc(C2OC(=O)c3ccccc32)c2ccccc12` (centres undefined), for which the TGI in [1], in [2], in test [3], in test [4], in test [5] and in [6] was > 100 µM each time. Besides, the TGI in [7], in test [8], in [9], in test [10], in test [11] and in [13] was > 100 µM throughout. Also, the TGI in [15], in test [16], in test [17], in test [18], in [19] and in [20] was > 100 µM each time.

`O=C1[C@H]2ON(c3ccccc3)C(c3ccccc3Cl)[C@H]2C(=O)N1c1ccc(Cc2ccc(N3C(=O)[C@@H]4ON(c5ccccc5)C(c5ccccc5Cl)[C@@H]4C3=O)cc2)cc1` (some centres undefined): the TGI in [1], in test [2], in test [3], in test [4], in test [5] and in test [6] was > 100 µM in each case. Moreover, the TGI in test [7], in [8], in test [9], in test [10], in test [11] and in [12] was > 100 µM each time. Also, the TGI in test [13], in test [14], in [15], in test [16], in [17] and in test [18] was > 100 µM in each case. Besides, the TGI in [19] and in [20] was > 100 µM in each case.

In the case of `CC(C)[C@H]1CO[C@]2(C)[C@@H]3CN(Cc4ccccc4)C[C@@H]3C(=O)N12`, the TGI in [1], in test [2], in test [3], in test [4], in test [5] and in test [6] was > 100 µM each time. The TGI in test [7], in test [8], in test [10], in [11], in [12] and in test [13] was > 100 µM each time. Besides, the TGI in test [14], in [15], in test [16], in test [17], in [18] and in [19] was > 100 µM throughout. Moreover, the TGI in test [20] is > 100 µM.

For `COc1ccc(C2=Nc3ccccc3NC(=O)C2)cc1`, the TGI in test [1] is > 100 µM; in test [2] it was > 100 µM; in test [3] it was 59.7 µM; in test [4], 42.3 µM; in test [5] it was 42.1 µM; in test [6], 45.6 µM. For the same compound, the TGI in test [7] is > 100 µM; in test [8], > 100 µM; in test [9], 37.1 µM; in test [10], > 100 µM; in [11], > 100 µM; in test [12], 67 µM. Moreover, the TGI in [13] was > 100 µM; in test [14] it was > 100 µM; in [15] it was > 100 µM; in [17], 47.8 µM; in test [18], > 100 µM; in [19] it was > 100 µM. The TGI in [20] was > 100 µM.

On to `Cc1csc(=S)n1OC(=O)NC1CCCCC1`, for which the TGI in [1] was > 100 µM; in test [2], > 40.2 µM; in test [3], 44.7 µM; in test [4] it was 96.8 µM; in test [5], 56.5 µM; in test [6], > 100 µM. Further, the TGI in test [7] was > 100 µM; in test [8], > 100 µM; in test [9], > 100 µM; in test [10], > 100 µM; in test [11] it was > 29.4 µM; in test [12], > 47.3 µM. For the same compound, the TGI is > 100 µM in test [13]; > 100 µM in [14]; > 32.5 µM in test [15]; > 71.8 µM in [16]; > 100 µM in test [17]; > 100 µM in test [18]. Further, the TGI in test [19] and in test [20] was > 100 µM throughout.

As for `NC1C[C@H](n2cc(/C=C/Br)c(=O)[nH]c2=O)C[C@@H]1CO` (some centres undefined), the TGI in [2], in test [3], in [5], in test [6], in test [8] and in test [9] was > 100 µM throughout. Further, the TGI in test [11], in test [12], in [13], in test [14], in test [15] and in test [16] was > 100 µM each time. The TGI in test [17], in test [19] and in test [20] was > 100 µM in each case.

Consider `Cc1c(/C=N/NC(=O)c2cc(Br)cc(Br)c2O)c(=O)n(-c2ccccc2)n1C`, for which the TGI in test [1] was > 100 µM; in test [2] it was > 100 µM; in test [3] it was 88.8 µM; in test [4], > 100 µM; in test [5], 5.97 µM; in test [6], > 100 µM. Also, the TGI in [8], in test [9], in test [10], in test [11], in test [12] and in test [13] was > 100 µM throughout. The TGI was 95.7 µM in test [14]; > 100 µM in [15]; > 100 µM in test [16]; > 100 µM in test [17]; > 100 µM in test [18]; > 100 µM in [19]. Further, the TGI in [20] was > 100 µM.

Regarding `COc1cc(OC)c2c(c1)C(=O)C(CC(C)O)=CC2=O` (centres undefined), the TGI was determined as 37.1 µM in test [1]; 32.6 µM in [2]; 9.21 µM in [3]; 25 µM in [4]; 21.8 µM in test [5]; 33.6 µM in test [6]. The TGI was 34.2 µM in test [7]; 78.8 µM in test [8]; 19 µM in test [9]; 37.3 µM in [10]; 41.8 µM in [11]; 34.9 µM in test [12]. The TGI in test [13] was found to be 40.4 µM; in test [14] it was 18.3 µM; in test [15] it was 31.9 µM; in test [16], 46.4 µM; in [17], 27.4 µM; in test [18], 36.2 µM. The TGI in test [19] was determined as 32.6 µM; in test [20] it was 29.9 µM.

In the case of `CC1SC2=NC3=C(c4ccccc4C3=O)C(c3ccc(F)cc3)N2C1=O` (centres undefined), the TGI in test [1], in test [2], in [3], in test [4], in [5] and in test [6] was > 100 µM in each case. Moreover, the TGI in [7], in test [8], in test [10], in test [11], in test [12] and in [13] was > 100 µM throughout. The TGI in test [14], in test [15], in test [16], in test [17], in test [18] and in [19] was > 100 µM in each case. Besides, in test [20], the TGI is > 100 µM.

As to `CC(=O)OCC1OC(OC2C(CSC3OC(COC(C)=O)C(OC(C)=O)C(OC(C)=O)C3OC(C)=O)OC(OC(C)=O)C(OC(C)=O)C2OC(C)=O)C(OC(C)=O)C(OC(C)=O)C1OC(C)=O` (centres undefined), the TGI in test [1], in test [2], in [3], in [4], in test [6] and in test [7] was > 100 µM throughout. Besides, the TGI in test [8], in [9], in test [10], in test [11], in test [12] and in [13] was > 100 µM each time. Further, the TGI in [14], in test [15], in [16], in test [17], in [19] and in [20] was > 100 µM throughout.

On to `C[C@H](OCc1ccccc1)C(=O)N1CCS(=O)(=O)N2CCC[C@H]2C1=O`, for which the TGI in test [1], in [2], in test [3], in test [4], in test [5] and in [6] was > 100 µM in each case. For the same compound, the TGI in test [7], in test [8], in [9], in test [10], in test [11] and in test [12] was > 100 µM each time. For the same compound, the TGI in [13], in test [14], in [15], in [16], in test [17] and in [19] was > 100 µM each time. For the same compound, the TGI in test [20] was > 100 µM.
